From patent US20150010928A1, “MEANS AND METHODS FOR ASSESSING AN ENDOCRINE DISEASE OR DISORDER” (priority 2012, published 2015)
Marks after values point to notes of the source that are not given here.

System: male rats
Assay: Plasma metabolite profiling (GC-MS, LC-MS, SPE-LC-MS) in male rats dosed once daily over 28 days (OECD 407)
Type: in vivo, rat
Set-up: key to erythro-Sphingoside (d18:1) / Tricosanoic acid (C23:0) / beta-Sitosterol / Tryptophan: ratio of treated group mean to untreated control group mean
Experimental: Each dose group in the studies consisted of five rats per sex. Additional groups of each 5 male and female animals served as controls. […] All animals of the animal population were kept under the same constant temperature (20-24±3° C.) and the same constant humidity (30-70%). The animals of the animal population were fed ad libitum. The food to be used was essentially free of chemical or microbial contaminants. Drinking water was also offered ad libitum. Accordingly, the water was free of chemical and microbial contaminants as laid down in the European Drinking Water Directive 98/83/EG. The illumination period was 12 hours light followed by 12 hours darkness (12 hours light, from 6:00 to 18:00, and 12 hours darkness, from 18:00 to 6:00). […] The test substances (compounds) in the Tables 1 to 17 below were dosed and administered as described in the Table 18.
In the morning of day 7, 14, and 28, blood was taken from the retroorbital venous plexus from fasted anaesthetized animals. From each animal, 1 ml of blood was collected with EDTA as anticoagulant. The samples were centrifuged for generation of plasma. All plasma samples were covered with a N2 atmosphere and then stored at −80° C. until analysis.
For mass spectrometry-based metabolite profiling analyses plasma samples were extracted and a polar and a non-polar (lipid) fraction was obtained. For GC-MS analysis, the non-polar fraction was treated with methanol under acidic conditions to yield the fatty acid methyl esters. Both fractions were further derivatised with O-methyl-hydroxyamine hydrochloride and pyridine to convert Oxogroups to O-methyloximes and subsequently with a silylating agent before analysis. In LC-MS analysis, both fractions were reconstituted in appropriate solvent mixtures. HPLC was performed by gradient elution on reversed phase separation columns. Mass spectrometric detection which allows target and high sensitivity MRM (Multiple Reaction Monitoring) profiling in parallel to a full screen analysis was applied as described in WO2003073464.
Steroids and their metabolites were measured by online SPE-LC-MS (Solid phase extraction-LC-MS).
Following comprehensive analytical validation steps, the data for each analyte were normalized against data from pool samples. These samples were run in parallel through the whole process to account for process variability. The significance of treatment group values specific for sex, treatmentduration and metabolite was determined by comparing means of the treated groups to the means of the respective untreated control groups using WELCH-test and quantified with treatment ratios versus control and p-values.
The identification of the most important biomarkers per toxicity pattern was done by a ranking of the analytes in the tables below. Therefore the metabolic changes in reference treatments of a given pattern (shown in the table) were compared with changes of the same metabolite in other unrelated treatments. […] The maximum absolute value of the respective TVALUE was taken to indicate the most important metabolite for the pattern.

[1] = male rats, plasma, high dose, day 7
[2] = male rats, plasma, high dose, day 14
[3] = male rats, plasma, high dose, day 28

Cn1cc[nH]c1=S [Methimazole]
3-O-Methylsphingosine (d18:1) (m7, high dose, Table 10a): 3.59 * | 5-O-Methylsphingosine (d18:1) (m7, high dose, Table 10a): 3.41 * | Cysteine (m7, high dose, Table 10a): 0.74^ | Lignoceric acid (C24:0) (m7, high dose, Table 10a): 2.12 * | Nervonic acid (C24:cis[15]1) (m7, high dose, Table 10a): 2.59 * | Oleic acid (C18:cis[9]1) (m7, high dose, Table 10a): 0.95^ | Stearic acid (C18:0) (m7, high dose, Table 10a): 1.34 * | alpha-Tocopherol (m7, high dose, Table 10a): 1.76 * | erythro-Sphingoside (d18:1) (m7, high dose, Table 10a): 2.91 * | threo-Sphingosine (d18:1) (m7, high dose, Table 10a): 2.91 * | Oleic acid (C18:cis[9]1) (m7, high dose, Table 10b): 0.95^ | Thyroxine (T4) (m7, high dose, Table 10b): 0.11 * | trans-4-Hydroxyproline (m7, high dose, Table 10b): 0.85 * | 3-O-Methylsphingosine (d18:1) (m14, high dose, Table 10a): 3.98 * | 5-O-Methylsphingosine (d18:1) (m14, high dose, Table 10a): 4.75 * | Cysteine (m14, high dose, Table 10a): 1.25 | Lignoceric acid (C24:0) (m14, high dose, Table 10a): 2.82 * | Nervonic acid (C24:cis[15]1) (m14, high dose, Table 10a): 3 * | Oleic acid (C18:cis[9]1) (m14, high dose, Table 10a): 0.97 | Stearic acid (C18:0) (m14, high dose, Table 10a): 1.4 * | alpha-Tocopherol (m14, high dose, Table 10a): 2.66 * | erythro-Sphingoside (d18:1) (m14, high dose, Table 10a): 3.71 * | threo-Sphingosine (d18:1) (m14, high dose, Table 10a): 3.72 * | Oleic acid (C18:cis[9]1) (m14, high dose, Table 10b): 0.97^ | Thyroxine (T4) (m14, high dose, Table 10b): 0.04 * | trans-4-Hydroxyproline (m14, high dose, Table 10b): 0.76 * | 3-O-Methylsphingosine (d18:1) (m28, high dose, Table 10a): 4.59 * | 5-O-Methylsphingosine (d18:1) (m28, high dose, Table 10a): 4.37 * | Cysteine (m28, high dose, Table 10a): 0.92^ | Lignoceric acid (C24:0) (m28, high dose, Table 10a): 2.16 * | Nervonic acid (C24:cis[15]1) (m28, high dose, Table 10a): 2.23 * | Oleic acid (C18:cis[9]1) (m28, high dose, Table 10a): 0.87^ | alpha-Tocopherol (m28, high dose, Table 10a): 2.18 * | erythro-Sphingoside (d18:1) (m28, high dose, Table 10a): 3.44 * | threo-Sphingosine (d18:1) (m28, high dose, Table 10a): 4.28 * | Oleic acid (C18:cis[9]1) (m28, high dose, Table 10b): 0.87 * | Phosphatidylcholine (C16:0, C16:0) (m28, high dose, Table 10b): 0.92 * | Thyroxine (T4) (m28, high dose, Table 10b): 0.02 * | trans-4-Hydroxyproline (m28, high dose, Table 10b): 0.92^ | 1,5-Anhydrosorbitol, ratio versus control [1]: 0.81 * | 3-O-Methylsphingosine (d18:1), ratio versus control [1]: 3.59 * | 5-O-Methylsphingosine (d18:1), ratio versus control [1]: 3.41 * | 18-Hydroxy-11-deoxycorticosterone, ratio versus control [1]: 0.38 * | Behenic acid (C22:0), ratio versus control [1]: 2.19 * | Ceramide (d18:1, C24:0), ratio versus control [1]: 2.58 * | Ceramide (d18:1, C24:1), ratio versus control [1]: 1.88 * | Coenzyme Q9, ratio versus control [1]: 1.23 | Corticosterone, ratio versus control [1]: 0.38 * | Docosapentaenoic acid (C22:cis[7, 10, 13, 16, 19]5), ratio versus control [1]: 1.16 | Glucose, ratio versus control [1]: 1.02 | Glycerol, polar fraction, ratio versus control [1]: 0.74 * | Isoleucine, ratio versus control [1]: 0.98 | Lignoceric acid (C24:0), ratio versus control [1]: 2.12 * | Linolenic acid (C18:cis[9, 12, 15]3), ratio versus control [1]: 0.7 * | Nervonic acid (C24:cis[15]1), ratio versus control [1]: 2.59 * | Phytosphingosine, ratio versus control [1]: 2 * | Sphingomyelin (d18:1, C16:0), ratio versus control [1]: 2.24 * | Threonic acid, ratio versus control [1]: 0.72 * | Tricosanoic acid (C23:0), ratio versus control [1]: 1.93 * | alpha-Tocopherol, ratio versus control [1]: 2.26 * | erythro-Sphingosine (d18:1), ratio versus control [1]: 2.91 * | threo-Sphingosine (d18:1), ratio versus control [1]: 2.91 * | trans-4-Hydroxyproline, ratio versus control [1]: 0.85 * | 1,5-Anhydrosorbitol, ratio versus control [2]: 0.98 | 3-O-Methylsphingosine (d18:1), ratio versus control [2]: 3.98 * | 5-O-Methylsphingosine (d18:1), ratio versus control [2]: 4.75 * | 18-Hydroxy-11-deoxycorticosterone, ratio versus control [2]: 0.82 | Behenic acid (C22:0), ratio versus control [2]: 3.12 * | Ceramide (d18:1, C24:0), ratio versus control [2]: 2.83 * | Ceramide (d18:1, C24:1), ratio versus control [2]: 2.41 * | Choline plasmalogen (C18, C20:4), ratio versus control [2]: 1.45 * | Coenzyme Q9, ratio versus control [2]: 1.54 * | Corticosterone, ratio versus control [2]: 1.47 * | Docosapentaenoic acid (C22:cis[7, 10, 13, 16, 19]5), ratio versus control [2]: 1.17 | Glucose, ratio versus control [2]: 1.11 | Glycerol, polar fraction, ratio versus control [2]: 0.64 * | Isoleucine, ratio versus control [2]: 1.18 * | Lignoceric acid (C24:0), ratio versus control [2]: 2.82 * | Linolenic acid (C18:cis[9, 12, 15]3), ratio versus control [2]: 0.8 * | Nervonic acid (C24:cis[15]1), ratio versus control [2]: 3 * | Phosphatidylcholine (C18:0, C22:6), ratio versus control [2]: 0.97 | Phytosphingosine, ratio versus control [2]: 3.12 * | Sphingomyelin (d18:1, C16:0), ratio versus control [2]: 2.27 * | Sphingomyelin (d18:1, C24:0), ratio versus control [2]: 1.64 * | Threonic acid, ratio versus control [2]: 0.69 * | Tricosanoic acid (C23:0), ratio versus control [2]: 2.69 * | alpha-Tocopherol, ratio versus control [2]: 3.65 * | erythro-Sphingosine (d18:1), ratio versus control [2]: 3.71 * | threo-Sphingosine (d18:1), ratio versus control [2]: 3.72 * | trans-4-Hydroxyproline, ratio versus control [2]: 0.76 * | 1,5-Anhydrosorbitol, ratio versus control [3]: 1.06 | 3-O-Methylsphingosine (d18:1), ratio versus control [3]: 4.59 * | 5-O-Methylsphingosine (d18:1), ratio versus control [3]: 4.37 * | 18-Hydroxy-11-deoxycorticosterone, ratio versus control [3]: 0.24 * | Behenic acid (C22:0), ratio versus control [3]: 3.13 * | Ceramide (d18:1, C24:0), ratio versus control [3]: 2.72 * | Ceramide (d18:1, C24:1), ratio versus control [3]: 1.89 * | Coenzyme Q9, ratio versus control [3]: 2.14 * | Corticosterone, ratio versus control [3]: 0.63 | Glycerol, polar fraction, ratio versus control [3]: 0.71 * | Isoleucine, ratio versus control [3]: 1.38 * | Lignoceric acid (C24:0), ratio versus control [3]: 2.16 * | Linolenic acid (C18:cis[9, 12, 15]3), ratio versus control [3]: 0.7 * | Nervonic acid (C24:cis[15]1), ratio versus control [3]: 2.23 * | Phosphatidylcholine (C18:0, C22:6), ratio versus control [3]: 1.22 * | Phytosphingosine, ratio versus control [3]: 3.11 * | Sphingomyelin (d18:1, C16:0), ratio versus control [3]: 1.92 * | Sphingomyelin (d18:1, C24:0), ratio versus control [3]: 1.41 * | Threonic acid, ratio versus control [3]: 0.69 * | Tricosanoic acid (C23:0), ratio versus control [3]: 2.5 * | alpha-Tocopherol, ratio versus control [3]: 2.04 * | erythro-Sphingosine (d18:1), ratio versus control [3]: 3.44 * | threo-Sphingosine (d18:1), ratio versus control [3]: 4.28 * | trans-4-Hydroxyproline, ratio versus control [3]: 0.92 * | Docosapentaenoic acid (C22:cis[7, 10, 13, 16, 19]5), ratio versus control (rat, in vivo): 1.24 * | Glucose, ratio versus control (rat, in vivo): 1.06 * | Phosphatidylcholine (C18:0, C22:6), ratio versus control (rat, in vivo): 1.17 * | Sphingomyelin (d18:1, C24:0), ratio versus control (rat, in vivo): 1.35 * | Stearic acid (C18:0) (rat, in vivo): 1.16 *
